Experiments:
Alternaria alternate = test: in vitro-Test with fungal microorganisms, Method A (tables A1-A12); type: cell-based, Alternaria alternata; settings: applied alone
Summary of the method: (§1)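 Growth inhibition was measured photometrically at 620 nm 3–5 days after application, with 100% efficacy meaning no growth and 0% meaning growth equal to the untreated control. Fungal spore or mycelium suspension in potato dextrose broth was added onto solvent-evaporated compound and incubated at 20° C and 85% relative humidity.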

[1] = Log P by HPLC on reversed phase columns (LC-UV), method [a]: acidic range, 0.1% formic acid in water / acetonitrile; type: physicochemical; settings: method [a]: HPLC on reversed phase column, acidic range, 0.1% formic acid in water / acetonitrile
Method: Measurement of Log P Values
Measurement of Log P values as provided herein was performed according to EEC directive 79/831 Annex V.A8 by HPLC (High Performance Liquid Chromatography) on reversed phase columns with the following methods: • ^[a]
If more than one Log P value is available within the same method, all the values are given and separated by “+”.

Diaporthe citri = test: in vitro-Test with fungal microorganisms, Method A (tables F1-F11); type: cell-based; settings: applied alone
Summary of the method: as §1

Fusarium culmorum = test: in vitro-Test with fungal microorganisms, Method A (tables G1-G4); type: cell-based; settings: alone
Summary of the method: as §1

Cercospora beticola = test: in vitro-Test with fungal microorganisms, Method A (tables C1-C10); type: cell-based; settings: Cercospora beticola, read-out: Efficacy %
Summary of the method: as §1

[2] = tested on: Ustilago segetum var. avenae; test: in vitro-Test with fungal microorganisms, Method A (tables I1-I5); type: cell-based; settings: alone, read-out: Efficacy %
Summary of the method: as §1

With Cc1ccc(CC2CON=C(c3cc(C)nnc3Oc3cccc(Cl)c3F)N2)c(Cl)c1 (racemic) [Compound I-302, rac-3-[3-(3-chloro-2-fluorophenoxy)-6-methylpyridazin-4-yl]-5-[(2-chloro-4-methylphenyl)methyl]-5,6-dihydro-4H-1,2,4-oxadiazine] the inhibition of growth at 0.0008 ppm (Alternaria alternate; Alternaria, 0.0008 ppm, read-out: Efficacy %) was 9%, the inhibition of growth at 0.004 ppm (Alternaria alternate; Alternaria, 0.004 ppm, read-out: Efficacy %) was 6% and the inhibition of growth at 0.02 ppm (Alternaria alternate; Alternaria, 0.02 ppm, read-out: Efficacy %) was 36%. The inhibition of growth at 0.1 ppm (Alternaria alternate; Alternaria, 0.1 ppm, read-out: Efficacy %) was 100%, the Efficacy % (Alternaria alternate; 0.004 ppm) was 6% and the chromatographic logP [1] was 3.94. For the same compound, the inhibition of growth at 0.0008 ppm (Diaporthe citri; Diaporthe citri, 0.0008 ppm, read-out: Efficacy) was 0%, the inhibition of growth at 0.004 ppm (Diaporthe citri; Diaporthe citri, 0.004 ppm, read-out: Efficacy) was 1% and the inhibition of growth at 0.02 ppm (Diaporthe citri; Diaporthe citri, 0.02 ppm, read-out: Efficacy) was 0%. For the same compound, the inhibition of growth at 0.1 ppm (Diaporthe citri; Diaporthe citri, 0.1 ppm, read-out: Efficacy) was 20%, the Efficacy (Diaporthe citri; 0.004 ppm) was 1% and the Efficacy (Fusarium culmorum; 0.004 ppm) was 4%. It also gave an inhibition of growth at 0.0008 ppm (Fusarium culmorum; Fusarium culmorum, 0.0008 ppm, read-out: Efficacy) of 7%, an inhibition of growth at 0.004 ppm (Fusarium culmorum; Fusarium culmorum, 0.004 ppm, read-out: Efficacy) of 4% and an inhibition of growth at 0.02 ppm (Fusarium culmorum; Fusarium culmorum, 0.02 ppm, read-out: Efficacy) of 2%. The inhibition of growth at 0.1 ppm (Fusarium culmorum; Fusarium culmorum, 0.1 ppm, read-out: Efficacy) was 0%, the inhibition of growth at 0.0008 ppm (Cercospora beticola; 0.0008 ppm) was 0% and the inhibition of growth at 0.004 ppm (Cercospora beticola; 0.004 ppm) was 0%. It also gave an inhibition of growth at 0.02 ppm (Cercospora beticola; 0.02 ppm) of 31%, an inhibition of growth at 0.1 ppm (Cercospora beticola; 0.1 ppm) of 35% and an inhibition of growth at 0.0008 ppm ([2]; 0.0008 ppm) of 0%. For the same compound, the inhibition of growth at 0.004 ppm ([2]; 0.004 ppm) was 0%, the inhibition of growth at 0.02 ppm ([2]; 0.02 ppm) was 0% and the inhibition of growth at 0.1 ppm ([2]; 0.1 ppm) was 0%.
